# From patent US20240425898A1, “BACTERIA CLASSIFICATION AND ANALYSIS” (SYSMEX ASTREGO AB, priority 2023, published 2024)
# Tested on: bacteria in the urine sample
# Experiment: Gram classification by treatment impact in microfluidic device (FIGS. 10 to 13)
# Assay type: cell-based, Escherichia coli
# Conditions: LIN 4 μg/ml and VAN 32 μg/ml at T1=25 min; NaCl 340 mM at 10-22 min
# Text: In this embodiment, bacterial cells from a biological sample are exposed to four different treatments (Tr1 to Tr4). […] The combination of LIN/VAN in the first treatment Tr1 is generally effective against gram-positive bacteria but has no or little antibacterial activity against gram-negative bacteria. […] AMC used in the third treatment Tr3 has broad antibacterial activity against both gram-positive and gram-negative bacteria. It, though, generally has slower antibacterial activity against Staphylococcus as compared to against Enterococcus. FOS used in the fourth treatment Tr4 has a broad antibacterial activity against both gram-positive and gram-negative bacteria. It, though, generally has a slower antibacterial activity against Staphylococcus as compared to against Enterococcus. Bacterial cells from the biological sample are preferably exposed to respective treatment in parallel. In this example, a respective impact parameter is determined for each treatment after a respective treatment period (T1 to T5) and then compared to a respective cutoff or threshold value. The respective treatment periods T1 to T5 could be the same but are typically different and adapted to the particular antimicrobial agent or mixture or salt or salt mixture. […] A urine sample was loaded into the microfluidic device 5 and bacterial growth was monitored in the different sets 130 of cell channels. […]
smiles,measurement,value
"[Cl-].[Na+] [NaCl, sodium chloride]",candidate gram classification indicated by treatment,gram negative
